Results as given in ChEMBL document CHEMBL1201862, “PubChem BioAssay data set” (2004).
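Assay format: 96-well plates, 48-hour exposure. Here, GI50 denotes the concentration required for 50% inhibition of growth.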 Activity calls are given as the source filed them. No stated cut-off is given here; in the data, active = GI50 up to about 1.1 µM and inactive = higher. Where a SMILES comes first, the peptide text is derived from it.

Key:
Assay in all cases: NCI anticancer screen, dose series, 48 h
[1] = test system: IGROV-1
[2] = test system: OVCAR-3
[3] = test system: CAKI-1
[4] = test system: SK-MEL-28
[5] = test system: SR
[6] = test system: NCI-H522
[7] = test system: A549
[8] = test system: HOP-62
[9] = test system: M14
[10] = test system: OVCAR-5
[11] = test system: HCT-116
[12] = test system: OVCAR-8
[13] = test system: 786-0
[14] = test system: SNB-19
[15] = test system: HCT-15
[16] = test system: SF-268
[17] = test system: SN12C
[18] = test system: HOP-92
[19] = test system: LOX IMVI
[20] = test system: SK-MEL-2

| Structure (SMILES) | GI50 [1] | GI50 [2] | GI50 [3] | GI50 [4] | GI50 [5] | GI50 [6] | GI50 [7] | GI50 [8] | GI50 [9] | GI50 [10] | GI50 [11] | GI50 [12] | GI50 [13] | GI50 [14] | GI50 [15] | GI50 [16] | GI50 [17] | GI50 [18] | GI50 [19] | GI50 [20] |
| --- | --- | --- | --- | --- | --- | --- | --- | --- | --- | --- | --- | --- | --- | --- | --- | --- | --- | --- | --- | --- |
| CC(C)c1ccc2nc3ccc(C(=O)NCCN(C)C)cn3c(=O)c2c1 | 30.8 µM (inactive) | 29.2 µM (inactive) | 23.1 µM (inactive) | 16.5 µM (inactive) | 17.5 µM (inactive) | 15.3 µM (inactive) | 17.4 µM (inactive) | 15.3 µM (inactive) | 14.6 µM (inactive) | 14.7 µM (inactive) | 13.9 µM (inactive) | 18.8 µM (inactive) | 14.6 µM (inactive) | 35 µM (inactive) | 13.8 µM | 17.5 µM (inactive) | 14.8 µM (inactive) |  |  |  |
| COC(=O)C1CCC(N2C(=O)CCC2C(=O)OC)=N1 (stereo not drawn) | > 100 µM (inactive) | > 100 µM (inactive) | > 100 µM (inactive) | > 100 µM (inactive) |  | > 100 µM (inactive) | > 100 µM (inactive) | > 100 µM (inactive) | > 100 µM (inactive) | > 100 µM (inactive) | > 100 µM (inactive) | > 100 µM (inactive) | > 100 µM (inactive) | > 100 µM (inactive) | > 100 µM | > 100 µM (inactive) | > 100 µM (inactive) | > 100 µM (inactive) | > 100 µM (inactive) | > 100 µM (inactive) |
| CC(=O)OCC1OC(n2c(-c3ccc(C)cc3)cc(-c3ccccc3)c(C#N)c2=O)C(OC(C)=O)C(OC(C)=O)C1OC(C)=O (stereo not drawn) | > 100 µM (inactive) | > 100 µM (inactive) | > 100 µM (inactive) | > 100 µM (inactive) |  | 82.6 µM (inactive) | > 100 µM (inactive) | > 100 µM (inactive) | > 100 µM (inactive) | > 100 µM (inactive) | > 100 µM (inactive) | > 100 µM (inactive) | > 100 µM (inactive) | > 100 µM (inactive) | > 100 µM | > 100 µM (inactive) | > 100 µM (inactive) | > 100 µM (inactive) | > 100 µM (inactive) | > 100 µM (inactive) |
| CCOC(=O)c1nnsc1NN | > 100 µM (inactive) | > 100 µM (inactive) | 76.2 µM (inactive) | > 100 µM (inactive) |  | > 100 µM (inactive) | 62.5 µM (inactive) | > 100 µM (inactive) | 90.6 µM (inactive) | > 100 µM (inactive) | 55.5 µM (inactive) | > 100 µM (inactive) | 39.3 µM (inactive) | > 100 µM (inactive) | > 100 µM | > 100 µM (inactive) | > 100 µM (inactive) | > 100 µM (inactive) | 30.1 µM (inactive) | > 100 µM (inactive) |
| COc1ccccc1/C=C\c1cnnc2ccccc12 | 8.63 µM (inactive) | > 10 µM (inactive) | > 10 µM (inactive) | > 10 µM (inactive) |  | > 10 µM (inactive) | > 10 µM (inactive) | > 10 µM (inactive) | > 10 µM (inactive) | > 10 µM (inactive) | 5.77 µM (inactive) | > 10 µM (inactive) | > 10 µM (inactive) | > 10 µM (inactive) | > 10 µM | > 10 µM (inactive) | > 10 µM (inactive) | 0.0372 µM (active) | 3.66 µM (inactive) | > 10 µM (inactive) |
| CCCCN1C(=O)NC(Cc2ccccc2)C1=O (stereo not drawn) |  |  | > 100 µM (inactive) | > 100 µM (inactive) | > 100 µM (inactive) | > 100 µM (inactive) | > 100 µM (inactive) | > 100 µM (inactive) | > 100 µM (inactive) | > 100 µM (inactive) |  | > 100 µM (inactive) |  | > 100 µM (inactive) |  | > 100 µM (inactive) | > 100 µM (inactive) |  | > 100 µM (inactive) | > 100 µM (inactive) |
| O=C1CNCCCN2CCN(CCCNCC(=O)Nc3ccc(cc3)S(=O)(=O)c3ccc(cc3)NC(=O)CNCCCN3CCN(CCCNCC(=O)Nc4ccc(cc4)S(=O)(=O)c4ccc(cc4)N1)CC3)CC2 | 21.2 µM (inactive) | 41.7 µM (inactive) | 30.1 µM (inactive) | 22.3 µM (inactive) |  | 10.7 µM (inactive) | 57.3 µM (inactive) | 25.1 µM (inactive) | 46 µM (inactive) | 31.4 µM (inactive) | 21.5 µM (inactive) | 24.8 µM (inactive) | 16.3 µM (inactive) | 52.2 µM (inactive) | 21 µM | 22.9 µM (inactive) | > 45.3 µM (inactive) | 28.1 µM (inactive) | 21 µM (inactive) | 35.1 µM (inactive) |
| COc1cc2c(c(OC)c1OC)C(=O)[C@@H]1[C@H]2N1C(N)=O | 94.8 µM (inactive) | > 100 µM (inactive) | > 100 µM (inactive) | > 100 µM (inactive) | > 100 µM (inactive) | > 100 µM (inactive) | > 100 µM (inactive) | > 100 µM (inactive) | > 100 µM (inactive) | 87.3 µM (inactive) | > 100 µM (inactive) | > 100 µM (inactive) | > 100 µM (inactive) | > 100 µM (inactive) | > 100 µM | > 100 µM (inactive) | > 100 µM (inactive) |  | > 100 µM (inactive) |  |
| COC1CCC2C(NS(=O)(=O)c3ccc(C)cc3)CCCC2O1.Cc1ccc(S(=O)(=O)NC(C)(C)C=O)cc1 (stereo not drawn) | 16.4 µM (inactive) | 13 µM (inactive) | 20.3 µM (inactive) | 30 µM (inactive) |  | 9.02 µM (inactive) | 16.2 µM (inactive) | 20.8 µM (inactive) | 16.7 µM (inactive) | > 34.5 µM (inactive) | 7.33 µM (inactive) | 16.1 µM (inactive) | 19.9 µM (inactive) | 16.1 µM (inactive) | 15.6 µM | > 34.5 µM (inactive) | 23.5 µM (inactive) | 3.66 µM (inactive) | 5.62 µM (inactive) | > 34.5 µM (inactive) |
| NC(=O)C1CCCN1C(=O)C(N)Cc1ccccc1 (stereo not drawn) (H-Phe-Pro-NH2; configuration not given here) | > 100 µM (inactive) | > 100 µM (inactive) | > 100 µM (inactive) | > 100 µM (inactive) | > 100 µM (inactive) | > 100 µM (inactive) | > 100 µM (inactive) | > 100 µM (inactive) | > 100 µM (inactive) | > 100 µM (inactive) | > 100 µM (inactive) | > 100 µM (inactive) |  | > 100 µM (inactive) | > 100 µM | > 100 µM (inactive) |  |  | > 100 µM (inactive) |  |
| COc1cc2c(cc1-c1coc3cc(O)ccc3c1=O)OCO2 [CUNEATIN] | 22.9 µM (inactive) | 32.6 µM (inactive) | 24 µM (inactive) | 45.8 µM (inactive) |  | 16.4 µM (inactive) | 30.3 µM (inactive) | 16.4 µM (inactive) | 71 µM (inactive) | 40.2 µM (inactive) | 18.7 µM (inactive) | 19.3 µM (inactive) | 15.7 µM (inactive) | 19.5 µM (inactive) | 18.6 µM | 19.3 µM (inactive) | 25.4 µM (inactive) | 29 µM (inactive) | 46.6 µM (inactive) | 37 µM (inactive) |
